Reference: ChEMBL document CHEMBL5214927, “Recent advance on carbamate-based cholinesterase inhibitors as potential multifunctional agents against Alzheimer's disease” (Eur J Med Chem, 2022)

How the values were obtained:
Acetylcholinesterase [1] = biological target: T1, Acetylcholinesterase (Homo sapiens, UniProt P22303); test: Inhibition of recombinant human AChE using acetylthiocholine as substrate at 100 uM preincubated for 5 mins followed by substrate addition measured for 1 min by Ellman's method relative to control; conditions: time 6.0 min
[2] = biological target: T2, Amine oxidase [flavin-containing] A (Homo sapiens, UniProt P21397); test: Inhibition of recombinant human MAO-A expressed in BTI-TN-5B1-4 insect cells using p-tyramine as substrate at 100 uM preincubated for 15 mins followed by substrate addition measured after 20 mins by Amplex Red assay relative to control; conditions: BTI-TN-5B1-4, human, time 35 min
T2 sequence (P21397 whole entry): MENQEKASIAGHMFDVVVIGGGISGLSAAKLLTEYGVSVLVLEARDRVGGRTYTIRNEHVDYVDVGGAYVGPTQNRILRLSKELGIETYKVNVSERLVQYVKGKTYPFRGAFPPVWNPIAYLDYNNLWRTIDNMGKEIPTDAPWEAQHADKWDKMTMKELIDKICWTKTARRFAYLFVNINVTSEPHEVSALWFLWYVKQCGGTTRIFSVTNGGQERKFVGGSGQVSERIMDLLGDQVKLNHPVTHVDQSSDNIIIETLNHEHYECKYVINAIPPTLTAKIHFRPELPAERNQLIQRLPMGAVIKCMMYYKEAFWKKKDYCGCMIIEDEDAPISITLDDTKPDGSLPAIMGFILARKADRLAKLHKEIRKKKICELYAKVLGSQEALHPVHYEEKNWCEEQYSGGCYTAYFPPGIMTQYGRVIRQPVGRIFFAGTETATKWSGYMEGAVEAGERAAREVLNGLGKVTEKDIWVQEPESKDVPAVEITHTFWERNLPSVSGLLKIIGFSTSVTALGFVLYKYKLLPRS

[3] = biological target: T3, Cholinesterases; ACHE & BCHE (Homo sapiens) (UniProt P06276+P22303); test: Selectivity index, ratio of IC50 for recombinant human serum BChE to IC50 for recombinant human serum AChE; type: protein assay
Acetylcholinesterase [4] = biological target: T1, Acetylcholinesterase; test: Inhibition of recombinant human serum AChE using acetylthiocholine iodide as substrate preincubated for 20 mins followed by substrate addition by Ellman's method
Cholinesterase [5] = biological target: T4, Cholinesterase (Homo sapiens, UniProt P06276); test: Inhibition of recombinant human serum BChE using acetylthiocholine iodide as substrate preincubated for 20 mins followed by substrate addition by Ellman's method
Cholinesterase [6] = biological target: Cholinesterase (Equus caballus, UniProt P81908); test: Inhibition of equine BChE
Acetylcholinesterase [7] = biological target: Acetylcholinesterase (Bos taurus, UniProt P23795)
Description: Inhibition of bovine AChE

[8] = biological target: High affinity cGMP-specific 3',5'-cyclic phosphodiesterase 9A (Homo sapiens, UniProt O76083); test: Inhibition of PDE9A (unknown origin)
Acetylcholinesterase [9] = biological target: T1, Acetylcholinesterase; test: Inhibition of human AChE
[10] = biological target: Muscarinic acetylcholine receptor M1 (Homo sapiens, UniProt P11229); test: Binding affinity to Muscarinic acetylcholine receptor M1 (unknown origin) assessed as inhibition constant
[11] = biological target: Muscarinic acetylcholine receptor M2 (Homo sapiens, UniProt P08172); test: Binding affinity to Muscarinic acetylcholine receptor M2 (unknown origin) assessed as inhibition constant
[12] = biological target: Muscarinic acetylcholine receptor M3 (Homo sapiens, UniProt P20309); test: Binding affinity to Muscarinic acetylcholine receptor M3 (unknown origin) assessed as inhibition constant
[13] = Selectivity index, ratio of IC50 for human plasma BChE to IC50 for electric eel AChE
[14] = biological target: T3, Cholinesterases; ACHE & BCHE (Homo sapiens); test: Selectivity index, ratio of IC50 for human plasma BChE to IC50 for human erythrocyte AChE; type: protein assay
Acetylcholinesterase [15] = biological target: T1, Acetylcholinesterase; test: Inhibition of human erythrocyte AChE using acetyl-(beta-methyl)thiocholine as substrate by Ellman's method
Cholinesterase [16] = biological target: T4, Cholinesterase; test: Inhibition of human plasma BChE using S-butyrylthiocholine as substrate by Ellman's method
Acetylcholinesterase [17] = biological target: Acetylcholinesterase (Electrophorus electricus, UniProt O42275); test: Inhibition of electric eel AChE using acetylthiocholine iodide as substrate incubated for 5 mins followed by substrate addition by Ellman's method
Acetylcholinesterase [18] = biological target: T1, Acetylcholinesterase; test: Binding affinity to AChE (unknown origin) assessed as inhibition constant
[19] = Toxicity in mouse assessed as lethal dose; conditions: in vivo
Cholinesterase [20] = biological target: T4, Cholinesterase; test: Binding affinity of human serum BChE assessed as inhibition constant by Ellman's method
[21] = biological target: Fatty-acid amide hydrolase 1 (Rattus norvegicus, UniProt P97612); test: Displacement of [14C]-ethanolamine from FAAH derived from rat brain membrane fraction preincubated for 20 mins followed by susbstrate addition by scintillation counting method; type: cell membranes
[22] = biological target: T3, Cholinesterases; ACHE & BCHE (Homo sapiens); test: Selectivity index, ratio of IC50 for recombinant human serum AChE to IC50 for recombinant human serum BChE; type: protein assay
Acetylcholinesterase [23] = biological target: T1, Acetylcholinesterase; test: Inhibition of human AChE using acetylthiocholine iodide as substrate preincubated for 10 mins followed by substrate addition by spectrophotometry
Acetylcholinesterase [24] = biological target: T1, Acetylcholinesterase; test: Binding affinity to AChE (unknown origin) assessed as inhibition constant preincubated for 60 mins followed by substrate addition measured after 60 mins by colorimetric method
Beta-secretase 1 = Beta-secretase 1 (Homo sapiens, UniProt P56817); test: Inhibition of BACE1 (unknown origin) using A-beta-PP as substrate by fluorescence based assay
Acetylcholinesterase [25] = biological target: T5, Acetylcholinesterase (Rattus norvegicus, UniProt P37136); test: Inhibition of rat cortex AChE using acetylthiocholine iodide as substrate incubated for 15 mins by Ellman's method
T5 sequence (P37136 whole entry): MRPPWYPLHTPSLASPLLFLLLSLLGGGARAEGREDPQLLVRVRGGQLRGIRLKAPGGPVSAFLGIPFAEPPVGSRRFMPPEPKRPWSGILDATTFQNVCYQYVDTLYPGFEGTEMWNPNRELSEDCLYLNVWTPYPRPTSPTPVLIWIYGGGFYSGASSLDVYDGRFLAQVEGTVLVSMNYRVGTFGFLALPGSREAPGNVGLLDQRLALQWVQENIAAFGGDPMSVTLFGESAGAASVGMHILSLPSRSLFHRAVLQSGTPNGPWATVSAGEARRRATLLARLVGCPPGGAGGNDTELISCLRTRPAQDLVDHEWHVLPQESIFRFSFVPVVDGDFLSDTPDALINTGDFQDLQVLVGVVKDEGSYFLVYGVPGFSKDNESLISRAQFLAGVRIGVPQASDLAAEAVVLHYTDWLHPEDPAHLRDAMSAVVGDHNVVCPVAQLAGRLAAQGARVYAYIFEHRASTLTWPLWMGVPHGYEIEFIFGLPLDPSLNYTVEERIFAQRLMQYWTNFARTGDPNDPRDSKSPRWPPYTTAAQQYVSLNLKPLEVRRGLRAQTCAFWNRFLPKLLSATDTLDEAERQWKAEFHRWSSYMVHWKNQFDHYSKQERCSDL

Butyrylcholinesterase = Butyrylcholinesterase (Rattus norvegicus, UniProt Q9JKC1); test: Inhibition of rat serum BChE using butyrylthiocholine iodide as substrate incubated for 15 mins by Ellman's method
[26] = biological target: Acetylcholinesterase and butyrylcholinesterase (AChE and BChE) (Rattus norvegicus) (UniProt P37136+Q9JKC1); test: Selectivity index, ratio of IC50 for rat serum BChE to IC50 for rat cortex AChE
Chain of Acetylcholinesterase and butyrylcholinesterase (AChE and BChE) (Rattus norvegicus) (Q9JKC1 1-597, one chain of several): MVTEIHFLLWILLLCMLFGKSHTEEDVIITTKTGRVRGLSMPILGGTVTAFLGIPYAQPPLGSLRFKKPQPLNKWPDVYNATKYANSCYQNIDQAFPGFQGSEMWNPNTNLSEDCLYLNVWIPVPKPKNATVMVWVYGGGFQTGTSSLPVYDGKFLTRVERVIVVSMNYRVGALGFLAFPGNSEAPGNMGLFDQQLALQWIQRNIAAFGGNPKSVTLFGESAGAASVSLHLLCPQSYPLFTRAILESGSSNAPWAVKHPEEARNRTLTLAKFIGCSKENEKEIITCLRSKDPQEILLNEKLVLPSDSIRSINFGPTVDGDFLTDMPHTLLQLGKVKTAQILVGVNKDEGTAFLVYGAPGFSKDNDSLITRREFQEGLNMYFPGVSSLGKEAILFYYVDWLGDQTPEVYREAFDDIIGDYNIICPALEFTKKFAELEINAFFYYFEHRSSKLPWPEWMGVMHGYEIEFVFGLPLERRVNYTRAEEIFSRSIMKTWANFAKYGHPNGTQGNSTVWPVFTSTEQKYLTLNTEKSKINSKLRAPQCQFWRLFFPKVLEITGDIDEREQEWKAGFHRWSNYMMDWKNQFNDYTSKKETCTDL

Chain of Cholinesterase (Equus caballus, UniProt P81908) (P81908 whole entry): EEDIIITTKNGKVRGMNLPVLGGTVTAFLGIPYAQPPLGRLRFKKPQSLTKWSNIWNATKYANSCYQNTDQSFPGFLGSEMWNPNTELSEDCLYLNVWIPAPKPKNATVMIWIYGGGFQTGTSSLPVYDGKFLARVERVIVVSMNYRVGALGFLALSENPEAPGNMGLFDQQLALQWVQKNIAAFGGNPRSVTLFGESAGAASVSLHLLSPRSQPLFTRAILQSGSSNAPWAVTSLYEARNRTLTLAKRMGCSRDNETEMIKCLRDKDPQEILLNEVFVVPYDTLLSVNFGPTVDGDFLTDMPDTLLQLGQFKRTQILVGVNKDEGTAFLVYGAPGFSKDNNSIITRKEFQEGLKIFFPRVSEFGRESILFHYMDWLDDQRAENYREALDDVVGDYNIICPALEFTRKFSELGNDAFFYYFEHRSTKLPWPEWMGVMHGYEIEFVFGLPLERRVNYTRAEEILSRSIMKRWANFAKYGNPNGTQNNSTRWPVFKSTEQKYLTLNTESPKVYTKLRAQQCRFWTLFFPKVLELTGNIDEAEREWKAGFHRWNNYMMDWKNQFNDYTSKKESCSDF
T1 sequence (P22303 whole entry): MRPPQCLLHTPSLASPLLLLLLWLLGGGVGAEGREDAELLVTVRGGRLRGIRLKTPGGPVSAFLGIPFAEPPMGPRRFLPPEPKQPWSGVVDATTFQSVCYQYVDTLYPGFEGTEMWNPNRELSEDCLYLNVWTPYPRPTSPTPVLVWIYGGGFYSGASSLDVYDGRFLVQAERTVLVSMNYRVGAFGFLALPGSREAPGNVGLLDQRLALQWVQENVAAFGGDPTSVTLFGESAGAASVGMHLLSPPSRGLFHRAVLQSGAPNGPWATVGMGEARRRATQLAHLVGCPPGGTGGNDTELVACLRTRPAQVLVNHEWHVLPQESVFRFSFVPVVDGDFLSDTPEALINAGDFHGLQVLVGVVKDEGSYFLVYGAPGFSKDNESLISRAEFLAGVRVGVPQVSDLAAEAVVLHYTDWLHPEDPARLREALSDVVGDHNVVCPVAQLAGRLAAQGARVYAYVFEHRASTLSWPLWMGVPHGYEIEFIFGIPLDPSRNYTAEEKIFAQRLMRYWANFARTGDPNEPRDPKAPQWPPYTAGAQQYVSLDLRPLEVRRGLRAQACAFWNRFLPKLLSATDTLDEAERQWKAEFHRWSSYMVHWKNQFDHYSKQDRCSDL
T4 sequence (P06276 whole entry): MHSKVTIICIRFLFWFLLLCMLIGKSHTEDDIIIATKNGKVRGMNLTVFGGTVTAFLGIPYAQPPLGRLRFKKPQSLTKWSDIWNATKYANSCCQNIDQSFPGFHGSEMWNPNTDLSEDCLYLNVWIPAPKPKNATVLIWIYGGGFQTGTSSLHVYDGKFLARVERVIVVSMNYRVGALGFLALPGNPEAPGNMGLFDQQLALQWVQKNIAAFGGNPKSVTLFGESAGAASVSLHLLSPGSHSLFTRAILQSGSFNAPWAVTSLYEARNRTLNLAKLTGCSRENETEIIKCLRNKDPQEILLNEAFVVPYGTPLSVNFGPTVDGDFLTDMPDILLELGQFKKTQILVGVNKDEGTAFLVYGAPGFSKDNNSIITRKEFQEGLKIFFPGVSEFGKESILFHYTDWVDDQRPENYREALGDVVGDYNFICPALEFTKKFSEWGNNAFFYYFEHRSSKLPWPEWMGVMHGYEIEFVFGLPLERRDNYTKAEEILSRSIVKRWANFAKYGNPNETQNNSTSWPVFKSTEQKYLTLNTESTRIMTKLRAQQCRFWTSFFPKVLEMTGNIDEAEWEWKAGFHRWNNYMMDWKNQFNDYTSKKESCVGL
T3 sequence (P06276 whole entry, looked up): as the sequence (P06276 whole entry) above
T3 sequence (P22303 whole entry, looked up): as the sequence (P22303 whole entry) above
Chain of High affinity cGMP-specific 3',5'-cyclic phosphodiesterase 9A (O76083 whole entry): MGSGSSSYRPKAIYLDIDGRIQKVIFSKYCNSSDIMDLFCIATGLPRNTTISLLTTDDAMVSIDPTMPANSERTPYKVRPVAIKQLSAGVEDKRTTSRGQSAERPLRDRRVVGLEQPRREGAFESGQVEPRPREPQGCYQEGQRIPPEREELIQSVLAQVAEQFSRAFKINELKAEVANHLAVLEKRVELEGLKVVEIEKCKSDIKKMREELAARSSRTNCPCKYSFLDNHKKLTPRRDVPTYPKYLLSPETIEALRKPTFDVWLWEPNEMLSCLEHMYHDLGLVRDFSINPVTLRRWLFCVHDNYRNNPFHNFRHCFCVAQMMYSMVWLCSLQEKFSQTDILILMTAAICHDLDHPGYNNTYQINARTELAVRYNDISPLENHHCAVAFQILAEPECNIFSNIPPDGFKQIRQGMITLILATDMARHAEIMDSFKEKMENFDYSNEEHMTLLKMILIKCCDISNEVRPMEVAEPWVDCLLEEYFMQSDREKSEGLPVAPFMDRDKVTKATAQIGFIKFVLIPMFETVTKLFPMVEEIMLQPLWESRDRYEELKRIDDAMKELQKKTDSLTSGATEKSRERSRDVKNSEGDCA
Chain of Muscarinic acetylcholine receptor M2 (P08172 whole entry): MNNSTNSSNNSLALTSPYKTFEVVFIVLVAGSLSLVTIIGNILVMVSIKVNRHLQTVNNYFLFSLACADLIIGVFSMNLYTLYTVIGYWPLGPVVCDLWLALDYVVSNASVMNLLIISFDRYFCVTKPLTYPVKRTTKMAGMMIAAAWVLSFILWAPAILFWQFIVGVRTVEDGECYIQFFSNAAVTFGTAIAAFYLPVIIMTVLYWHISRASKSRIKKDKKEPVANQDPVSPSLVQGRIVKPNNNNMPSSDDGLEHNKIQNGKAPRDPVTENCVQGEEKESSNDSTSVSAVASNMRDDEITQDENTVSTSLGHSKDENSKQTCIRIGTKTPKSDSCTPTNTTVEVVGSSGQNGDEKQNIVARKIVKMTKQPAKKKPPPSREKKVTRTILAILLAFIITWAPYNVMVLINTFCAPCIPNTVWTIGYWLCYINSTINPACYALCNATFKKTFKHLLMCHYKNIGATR
Chain of Muscarinic acetylcholine receptor M1 (P11229 whole entry): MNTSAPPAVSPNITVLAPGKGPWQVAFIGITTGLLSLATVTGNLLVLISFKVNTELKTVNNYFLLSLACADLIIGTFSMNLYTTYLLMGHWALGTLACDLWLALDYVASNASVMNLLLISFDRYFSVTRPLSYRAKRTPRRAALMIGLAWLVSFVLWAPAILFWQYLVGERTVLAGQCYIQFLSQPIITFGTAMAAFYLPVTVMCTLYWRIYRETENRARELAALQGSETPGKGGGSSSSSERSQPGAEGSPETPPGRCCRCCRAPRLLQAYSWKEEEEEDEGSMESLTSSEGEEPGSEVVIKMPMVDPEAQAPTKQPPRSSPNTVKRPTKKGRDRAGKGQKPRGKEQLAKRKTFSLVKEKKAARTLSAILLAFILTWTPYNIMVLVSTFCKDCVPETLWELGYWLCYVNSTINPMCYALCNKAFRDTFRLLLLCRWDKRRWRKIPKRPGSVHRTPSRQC
Chain of Beta-secretase 1 (P56817 whole entry): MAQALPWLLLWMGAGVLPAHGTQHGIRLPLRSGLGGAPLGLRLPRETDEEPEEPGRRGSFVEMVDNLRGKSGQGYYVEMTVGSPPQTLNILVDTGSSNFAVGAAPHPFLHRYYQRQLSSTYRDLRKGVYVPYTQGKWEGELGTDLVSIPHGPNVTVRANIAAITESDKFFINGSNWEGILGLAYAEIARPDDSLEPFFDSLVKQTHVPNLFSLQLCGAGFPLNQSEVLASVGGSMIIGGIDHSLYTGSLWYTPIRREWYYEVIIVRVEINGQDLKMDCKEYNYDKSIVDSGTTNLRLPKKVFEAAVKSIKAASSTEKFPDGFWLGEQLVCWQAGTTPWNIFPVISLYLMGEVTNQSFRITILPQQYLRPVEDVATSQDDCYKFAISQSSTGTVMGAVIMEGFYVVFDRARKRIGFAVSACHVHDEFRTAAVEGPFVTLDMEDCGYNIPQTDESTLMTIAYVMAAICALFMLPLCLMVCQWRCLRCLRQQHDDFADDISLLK
Chain of Butyrylcholinesterase (Q9JKC1 whole entry): as the sequence (Q9JKC1 1-597, one chain of several) above

Q: With `C#CCN1CCC(CCc2cccc(OC(=O)N(C)CC)c2)CC1` as the compound, how does the inhibition (Acetylcholinesterase [1]) read?
A: 50.2%

Q: What about the inhibition at 100 µM [2] of the same compound?
A: 69.4%

Q: What does the source list for `CNC(=O)Oc1cccc(CN(C)CCCCCCCOc2ccc(-c3cc4ccccc4oc3=O)cc2)c1`?
A: Ratio IC50 [3]: 49; IC50 (Acetylcholinesterase [4]): 0.0012 µM; IC50 (Cholinesterase [5]): 0.0594 µM

Q: Which IC50 (Cholinesterase [6]) does the source give for `CCN(C)C(=O)Oc1cccc2c1NCC2CCC(=O)OC` (stereo unspecified) here?
A: 61.6 µM

Q: What about the IC50 (Acetylcholinesterase [7]) of the same compound?
A: 0.008 µM

Q: What does the source list for `CCN(C)C(=O)Oc1ccc(CNc2nc3c(cnn3C3CCCC3)c(=O)[nH]2)cc1OC`?
A: IC50 (Cholinesterase [6]): 3.3 µM; IC50 [8]: 0.014 µM

Q: For `CNC(=O)Oc1cccc2c1CCC1C2CCN1CCC1CCCCC1` (stereo unspecified), which IC50 (Acetylcholinesterase [9]) is on record?
A: 0.058 µM

Q: And the Ki [10]?
A: 0.657 µM

Q: What about the Ki [11] of the same compound?
A: 0.132 µM

Q: And the Ki [12]?
A: 1.52 µM

Q: For `O=C(CCCCC1CCSS1)O[C@@H]1CO[C@H]2[C@@H]1OC[C@@H]2OC(=O)NCc1ccccc1` (stereo partly specified), which Ratio IC50 [13] is on record?
A: 667

Q: What does the source list for `CNC(=O)Oc1ccc2c(c1)[C@]1(C)CCO[C@@H]1N2C`?
A: Ratio IC50 [14]: 27; IC50 (Acetylcholinesterase [15]): 0.004 µM; IC50 (Cholinesterase [16]): 0.0067 µM

Q: Which IC50 (Acetylcholinesterase [17]) does the source give for `COc1cc2c(cc1OC)C(=O)C(Cc1ccc(OC(=O)Nc3ccc(Cl)cc3)cc1)C2` (stereo unspecified) here?
A: 4.64 µM

Q: Which Ki (Acetylcholinesterase [18]) does the source give for `CCCCCCCNC(=O)Oc1ccc2c(c1)[C@]1(C)CCN(C)[C@@H]1N2C` [EPTASTIGMINE] here?
A: 0.1 µM

Q: And the LD50 [19]?
A: 35 mg/kg

Q: For `CC(C)c1ccc(NC(=O)Oc2ccc3c(c2)[C@]2(C)CCN(Cc4ccc(F)cc4)[C@@H]2N3C)cc1`, which Ki (Cholinesterase [20]) is on record?
A: 0.342 µM

Q: Which results are given for `CN(CCCOc1ccc2ccc(=O)oc2c1)Cc1cccc(OC(=O)NC2CCCCC2)c1`?
A: IC50 [21]: 0.00133 µM; Ratio IC50 [22]: 2.98

Q: For `COc1cc(CNc2nc3c(cnn3C3CCCC3)c(=O)[nH]2)ccc1OC(=O)N(C)C`, which IC50 (Cholinesterase [6]) is on record?
A: 0.97 µM

Q: And the IC50 [8]?
A: 0.017 µM

Q: With `CCOC(=O)C1=CN(C)c2cccc(OC(=O)N(C)C)c2C1` as the compound, how does the IC50 (Acetylcholinesterase [23]) read?
A: > 1000 µM

Q: For `CC(C)(C)OC(=O)Nc1ccc(O)c(C(=O)NCCCN2CCCCC2)c1`, which Ki (Acetylcholinesterase [24]) is on record?
A: 0.12 µM

Q: And the IC50 (Beta-secretase 1)?
A: 0.0151 µM

Q: With `CCNC(=O)Oc1ccc(-c2cc(=O)c3c(O)c(O)c(O)cc3o2)cc1` as the compound, how does the IC50 (Acetylcholinesterase [25]) read?
A: 1.2 µM

Q: And the IC50 (Butyrylcholinesterase)?
A: 22.1 µM

Q: What about the Ratio IC50 [26] of the same compound?
A: 18.4
